Source: PMC10937556, “Phenolic phytochemistry, in vitro, in silico, in vivo, and mechanistic anti-inflammatory and antioxidant evaluations of Habenaria digitata” (Frontiers in Pharmacology, 2024)

System: carrageenan-induced paw edema
Assay: Carrageenan-induced paw edema
Type: in vivo, mice
Description: Mice of both sexes (25–30 g) were used for in vivo anti-inflammatory activity of test samples on the carrageenan-induced inflammation model ([Munir et al., 2020]). Mice were distributed into five groups, with eight animals in each group, divided at random. Group-I served as the negative control and received DMSO at a dose of 10 mL/kg body weight. Group-II served as a positive control, which received aspirin at a dose of 100 mg/kg body weight. […] Each mouse received 1 percent (w/v) saline solution (0.05 mL) of carrageenan in the sub-planter region after a 30-min interval. The paw edema volume was determined using a plethysmometer (LE 7500-plan lab S.L) at 1–5 h intervals after carrageenan was given. […] The percentages of inhibition of inflammation were calculated using the formula given below: % inhibition=EC−ET/EC×100, where “EC” is the average edema of control and “ET” is the edema of the tested group.

For `Cc1cnc(O)nc1O` [Compound 1, 5-methylpyrimidine-24,4-diol], the “Percentage inhibition of paw edema” value (dose 5 mg/kg, 1 h) was 46.72 ± 2.63 ns %, the “Percentage inhibition of paw edema” value (dose 5 mg/kg, 2 h) was 50.46 ± 2.52 % and the “Percentage inhibition of paw edema” value (dose 5 mg/kg, 3 h) was 53.58 ± 1.33 %. For the same molecule, the “Percentage inhibition of paw edema” value (dose 5 mg/kg, 4 h) was 52.37 ± 1.46 %, the “Percentage inhibition of paw edema” value (dose 5 mg/kg, 5 h) was 55.23 ± 1.61 % and the “Percentage inhibition of paw edema” value (dose 10 mg/kg, 1 h) was 51.37 ± 2.23 %. The “Percentage inhibition of paw edema” value (dose 10 mg/kg, 2 h) was 53.56 ± 3.57 %, the “Percentage inhibition of paw edema” value (dose 10 mg/kg, 3 h) was 56.56 ± 1.57 % and the “Percentage inhibition of paw edema” value (dose 10 mg/kg, 4 h) was 55.76 ± 2.62 %. For the same molecule, the “Percentage inhibition of paw edema” value (dose 10 mg/kg, 5 h) was 61.68 ± 2.77 %, the “Percentage inhibition of paw edema” value (dose 20 mg/kg, 1 h) was 54.27 ± 3.06 % and the “Percentage inhibition of paw edema” value (dose 20 mg/kg, 2 h) was 56.38 ± 1.67 %. The “Percentage inhibition of paw edema” value (dose 20 mg/kg, 3 h) was 59.74 ± 2.67 % and the “Percentage inhibition of paw edema” value (dose 20 mg/kg, 4 h) was 58.02 ± 1.95 %.
